Measured values: PubChem BioAssay AID1259411 (Chemical Carcinogenesis Research Information System (CCRIS), 2018)
Active and inactive are the calls of the source. How the calls were made is not given here.

Test system: rodent carcinogenicity bioassays, tumor incidence
Experiment: CCRIS carcinogenicity studies
Outline: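 NCI-built, expert-reviewed records of carcinogenicity and related test outcomes (mutagenicity, tumor promotion/inhibition) compiled from published and report sources, historical span 1985-2011, not updated.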

Compound: CCC(O)OC (centres undefined)
- carcinogen call (Species: MOUSE, Strain/Sex: B6C3F1/FEMALE, Route: INHALATION, Dose: 0, 300, 1000, 3000 PPM 6 HR/D 5 D/WK FOR 2 YR (STUDY DURATION: 2 YR), Dose: 0, 300, 1000, 3000 PPM 6 HR/D 5 D/WK FOR 2 YR (STUDY DURATION: 2 YR)): inactive; negative
- carcinogen call (Species: MOUSE, Strain/Sex: B6C3F1/MALE, Route: INHALATION, Dose: 0, 300, 1000, 3000 PPM 6 HR/D 5 D/WK FOR 2 YR (STUDY DURATION: 2 YR), Dose: 0, 300, 1000, 3000 PPM 6 HR/D 5 D/WK FOR 2 YR (STUDY DURATION: 2 YR)): inactive; negative
- carcinogen call (Species: RAT, Strain/Sex: F344/FEMALE, Route: INHALATION, Dose: 0, 300, 1000, 3000 PPM 6 HR/D 5 D/WK FOR 2 YR (STUDY DURATION: 2 YR), Dose: 0, 300, 1000, 3000 PPM 6 HR/D 5 D/WK FOR 2 YR (STUDY DURATION: 2 YR)): inactive; negative
- carcinogen call (Species: RAT, Strain/Sex: F344/MALE, Route: INHALATION, Dose: 0, 300, 1000, 3000 PPM 6 HR/D 5 D/WK FOR 2 YR (STUDY DURATION: 2 YR), Dose: 0, 300, 1000, 3000 PPM 6 HR/D 5 D/WK FOR 2 YR (STUDY DURATION: 2 YR)): inactive; negative

Compound: ClC(Cl)=C(Cl)C(Cl)=C(Cl)Cl
- carcinogen call (Species: RAT, Strain/Sex: SPRAGUE-DAWLEY/MALE,FEMALE, Route: ORAL, Dose: 0.2, 2.0, 20 MG/KG/DAY IN DIET, Dose: 0.2, 2.0, 20 MG/KG/DAY IN DIET, Tumor Site: Type of Lesion: KIDNEY: RENAL TUBULAR ADENOMA, ADENOCARCINOMA): active; positive

Compound: Nc1ccn([C@H]2CC[C@@H](CO)O2)c(=O)n1
- carcinogen call (Species: MOUSE, Strain/Sex: B6C3F1/FEMALE, Route: GAVAGE, Dose: 0, 500, 1000 MG/KG BW A DAY FOR 6 MO (STUDY DURATION: 6 MO), Dose: 0, 500, 1000 MG/KG BW A DAY FOR 6 MO (STUDY DURATION: 6 MO), Tumor Site: Type of Lesion: THYMUS: LYMPHOMA): active; positive
- carcinogen call (Species: MOUSE, Strain/Sex: B6C3F1/FEMALE, Route: GAVAGE, Dose: 0, 500, 1000 MG/KG/D FOR 13 WK (STUDY DURATION: 13 WK), Dose: 0, 500, 1000 MG/KG/D FOR 13 WK (STUDY DURATION: 13 WK)): inactive; negative
- carcinogen call (Species: MOUSE, Strain/Sex: B6C3F1/FEMALE, Route: GAVAGE, Dose: 0, 500, 1000 MG/KG/D FOR 13 WK FOLLOWED BY 4 WK OF RECOVERY (STUDY DURATION: 17 WK), Dose: 0, 500, 1000 MG/KG/D FOR 13 WK FOLLOWED BY 4 WK OF RECOVERY (STUDY DURATION: 17 WK)): inactive; negative
- carcinogen call (Species: MOUSE, Strain/Sex: B6C3F1/FEMALE, Route: GAVAGE, Dose: 0, 500, 1000 MG/KG/D FOR 13 WK FOLLOWED BY 13 WK FOR RECOVERY (STUDY DURATION: 26 WK), Dose: 0, 500, 1000 MG/KG/D FOR 13 WK FOLLOWED BY 13 WK FOR RECOVERY (STUDY DURATION: 26 WK), Tumor Site: Type of Lesion: THYMUS: LYMPHOMA): active; positive
- carcinogen call (Species: MOUSE, Strain/Sex: B6C3F1/FEMALE, Route: GAVAGE, Dose: 0, 1000 MG/KG BW A DAY FOR 3 MO FOLLOWED BY A 3-MO RECOVERY PERIOD (STUDY DURATION: 6 MO), Tumor Site: Type of Lesion: THYMUS: LYMPHOMA, SPLEEN: LYMPHOMA): active; positive
- carcinogen call (Species: MOUSE, Strain/Sex: B6C3F1/MALE, Route: GAVAGE, Dose: 0, 500, 1000 MG/KG BW A DAY FOR 6 MO (STUDY DURATION: 6 MO), Dose: 0, 500, 1000 MG/KG BW A DAY FOR 6 MO (STUDY DURATION: 6 MO), Tumor Site: Type of Lesion: THYMUS: LYMPHOMA): active; positive
- carcinogen call (Species: MOUSE, Strain/Sex: B6C3F1/MALE, Route: GAVAGE, Dose: 0, 500, 1000 MG/KG/D FOR 13 WK (STUDY DURATION: 13 WK), Dose: 0, 500, 1000 MG/KG/D FOR 13 WK (STUDY DURATION: 13 WK)): inactive; negative
- carcinogen call (Species: MOUSE, Strain/Sex: B6C3F1/MALE, Route: GAVAGE, Dose: 0, 1000 MG/KG BW A DAY FOR 3 MO FOLLOWED BY A 3 MO RECOVERY PERIOD (STUDY DURATION: 6 MO), Tumor Site: Type of Lesion: THYMUS: LYMPHOMA): active; positive
- carcinogen call (Species: MOUSE, Strain/Sex: NIH SWISS/FEMALE, Route: GAVAGE, Dose: 0, 500, 1000 MG/KG BW A DAY FOR 6 MO (STUDY DURATION: 6 MO), Dose: 0, 500, 1000 MG/KG BW A DAY FOR 6 MO (STUDY DURATION: 6 MO), Tumor Site: Type of Lesion: THYMUS: LYMPHOMA, SPLEEN: LYMPHOMA, LYMPH NODE: LYMPHOMA, Tumor Site: Type of Lesion: THYMUS: LYMPHOMA, SPLEEN: LYMPHOMA, LYMPH NODE: LYMPHOMA): active; positive
- carcinogen call (Species: MOUSE, Strain/Sex: NIH SWISS/FEMALE, Route: GAVAGE, Dose: 0, 1000 MG/KG BW A DAY FOR 3 MO FOLLOWED BY A 3-MO RECOVERY PERIOD (STUDY DURATION: 6 MO), Tumor Site: Type of Lesion: THYMUS: LYMPHOMA, SPLEEN: LYMPHOMA, LYMPH NODE: LYMPHOMA, Tumor Site: Type of Lesion: THYMUS: LYMPHOMA, SPLEEN: LYMPHOMA, LYMPH NODE: LYMPHOMA): active; positive
- carcinogen call (Species: MOUSE, Strain/Sex: NIH SWISS/MALE, Route: GAVAGE, Dose: 0, 500, 1000 MG/KG BW A DAY FOR 6 MO (STUDY DURATION: 6 MO), Dose: 0, 500, 1000 MG/KG BW A DAY FOR 6 MO (STUDY DURATION: 6 MO), Tumor Site: Type of Lesion: THYMUS: LYMPHOMA): active; positive
- carcinogen call (Species: MOUSE, Strain/Sex: NIH SWISS/MALE, Route: GAVAGE, Dose: 0, 1000 MG/KG BW A DAY FOR 3 MO FOLLOWED BY A 3-MO RECOVERY PERIOD (STUDY DURATION: 6 MO), Tumor Site: Type of Lesion: THYMUS: LYMPHOMA): active; positive

Compound: ClC1(Cl)C2(Cl)C3(Cl)C4(Cl)C(Cl)(Cl)C5(Cl)C3(Cl)C1(Cl)C5(Cl)C24Cl (centres undefined)
- carcinogen call (Species: MOUSE, Strain/Sex: B6AKF1/MALE,FEMALE, Route: GAVAGE/ORAL, Dose: 10 MG/KG FROM D 7- 28 OF LIFE THEN 26 PPM IN DIET, Tumor Site: Type of Lesion: LIVER: HEPATOMA): active; positive
- carcinogen call (Species: MOUSE, Strain/Sex: B6C3F1/MALE,FEMALE, Route: GAVAGE/ORAL, Dose: 10 MG/KG FROM D 7- 28 OF LIFE THEN 26 PPM IN DIET, Tumor Site: Type of Lesion: LIVER: HEPATOMA): active; positive
- carcinogen call (Species: RAT, Route: ORAL, Tumor Site: Type of Lesion: LIVER): active; positive
- carcinogen call (Species: RAT, Strain/Sex: F344/FEMALE, Route: ORAL, Dose: 0, 0.1, 1, 10, 25, 50 PPM IN FEED FOR 104 WK (STUDY DURATION: 105 WK), Dose: 0, 0.1, 1, 10, 25, 50 PPM IN FEED FOR 104 WK (STUDY DURATION: 105 WK), Tumor Site: Type of Lesion: HEMATOPOIETIC SYSTEM: MONONUCLEAR CELL LEUKEMIA): active; positive
- carcinogen call (Species: RAT, Strain/Sex: F344/FEMALE, Route: ORAL, Dose: 0, 50, 100 PPM IN FEED FOR 104 WK (STUDY DURATION: 106 WK), Dose: 0, 50, 100 PPM IN FEED FOR 104 WK (STUDY DURATION: 106 WK), Tumor Site: Type of Lesion: HEMATOPOIETIC SYSTEM: MONONUCLEAR CELL LEUKEMIA, LIVER: NEOPLASTIC NODULE, NEOPLASTIC NODULE OR HEPATOCELLULAR CARCINOMA): active; positive
- carcinogen call (Species: RAT, Strain/Sex: F344/MALE, Route: ORAL, Dose: 0, 0.1, 1, 10, 25, 50 PPM IN FEED FOR 104 WK (STUDY DURATION: 105 WK), Dose: 0, 0.1, 1, 10, 25, 50 PPM IN FEED FOR 104 WK (STUDY DURATION: 105 WK), Tumor Site: Type of Lesion: LIVER: NEOPLASTIC NODULE, NEOPLASTIC NODULE OR HEPATOCELLULAR CARCINOMA, ADRENAL GLAND: PHEOCHROMOCYTOMA, PHEOCHROMOCYTO): active; positive

Compound: CC1=NN(c2ccccc2)C(=O)C1
- carcinogen call (Species: MOUSE, Strain/Sex: B6C3F1/FEMALE, Route: ORAL, Dose: 0, 7500, 15000 PPM IN DIET, Dose: 0, 7500, 15000 PPM IN DIET): inactive; negative
- carcinogen call (Species: MOUSE, Strain/Sex: B6C3F1/MALE, Route: ORAL, Dose: 0, 7500, 15000 PPM IN DIET, Dose: 0, 7500, 15000 PPM IN DIET): inactive; negative
- carcinogen call (Species: RAT, Strain/Sex: F344/FEMALE, Route: ORAL, Dose: 0, 2500, 5000 PPM IN DIET, Dose: 0, 2500, 5000 PPM IN DIET): inactive; negative
- carcinogen call (Species: RAT, Strain/Sex: F344/MALE, Route: ORAL, Dose: 0, 2500, 5000 PPM IN DIET, Dose: 0, 2500, 5000 PPM IN DIET): inactive; negative

Compound: Cc1c(N(C)C)c(=O)n(-c2ccccc2)n1C
- carcinogen call (Species: MOUSE, Strain/Sex: B6C3F1/FEMALE, Route: ORAL, Dose: 0, 0.04, 0.08% IN DRINKING WATER FOR 100 WK (STUDY DURATION: 104 WK), Dose: 0, 0.04, 0.08% IN DRINKING WATER FOR 100 WK (STUDY DURATION: 104 WK)): inactive; negative
- carcinogen call (Species: MOUSE, Strain/Sex: B6C3F1/MALE, Route: ORAL, Dose: 0, 0.04, 0.08% IN DRINKING WATER FOR 100 WK (STUDY DURATION: 104 WK), Dose: 0, 0.04, 0.08% IN DRINKING WATER FOR 100 WK (STUDY DURATION: 104 WK)): inactive; negative
